Reference: patent publication US5502035A, “N-terminus modified analogs of LHRH” (Tap Holdings Inc., priority 1994, dated 1996)
Non-standard residues stand in square brackets, D forms with d. Residues, ends and D or L forms follow the SMILES beside them. Groups on a side chain read outwards from the residue. *: point of attachment. Shikimoyl = O=C(C1=C[C@@H](O)[C@@H](O)[C@H](O)C1)*; X4 = O=C([C@@H](O)[C@@H](O)[C@H](O)[C@@H](O)CO)*; dPhe(4-Cl) = N[C@H](Cc1ccc(Cl)cc1)C(=O)O; d1Nal = N[C@H](Cc1cccc2ccccc12)C(=O)O; d2Nal = N[C@H](Cc1ccc2ccccc2c1)C(=O)O; d(hCit) = NC(=O)NCCCC[C@@H](N)C(=O)O; Lys(iPr) = CC(C)NCCCC[C@H](N)C(=O)O; NMeY = CN[C@@H](Cc1ccc(O)cc1)C(=O)O; dCit = NC(=O)NCCC[C@@H](N)C(=O)O; hArg = N=C(N)NCCCC[C@H](N)C(=O)O; d3Pal = N[C@H](Cc1cccnc1)C(=O)O; Nicotinoyl = O=C(c1cccnc1)*; Picolinoyl = O=C(c1ccccn1)*; X1 = O=C([C@@H]1CCCO1)*; X6 = O=C(c1ccoc1)*; Sar = CNCC(=O)O

Molecular target: T1, LHRH (Rattus norvegicus, UniProt P30969)
T1 construct: endogenous in cells; host or cells: rat pituitary cells (own knowledge of the cited Haviv 1989 method)
T1 sequence (P30969 1-327): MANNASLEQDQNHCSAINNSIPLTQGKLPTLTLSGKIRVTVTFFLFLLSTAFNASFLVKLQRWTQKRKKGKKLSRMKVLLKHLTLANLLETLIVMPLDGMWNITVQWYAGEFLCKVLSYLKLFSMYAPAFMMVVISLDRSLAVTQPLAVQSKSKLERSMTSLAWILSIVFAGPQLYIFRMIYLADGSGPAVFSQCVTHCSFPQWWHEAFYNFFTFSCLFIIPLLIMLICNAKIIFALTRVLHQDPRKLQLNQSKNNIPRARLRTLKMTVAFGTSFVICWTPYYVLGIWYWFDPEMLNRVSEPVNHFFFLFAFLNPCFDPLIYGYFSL
Experiment: in vitro test for LHRH antagonist potency (pA2)
Type: cell-based
Conditions: negative logarithm of the antagonist concentration required to shift the response curve produced by the agonist leuprolide to two-fold higher concentration
How it was run: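 Rat LHRH receptor in vitro functional test; pA2 = negative log of the antagonist concentration shifting the leuprolide agonist response curve to two-fold higher concentration.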

Row | SMILES | Kb [nM]
1 | CC(C)C[C@H](NC(=O)[C@@H](CCCCNC(=O)C1=C[C@@H](O)[C@@H](O)[C@H](O)C1)NC(=O)[C@H](Cc1ccc(O)cc1)N(C)C(=O)[C@H](CO)NC(=O)[C@@H](Cc1cccnc1)NC(=O)[C@@H](Cc1ccc(Cl)cc1)NC(=O)[C@@H](Cc1ccc2ccccc2c1)NC(=O)CNC(=O)C1=C[C@@H](O)[C@@H](O)[C@H](O)C1)C(=O)N[C@@H](CCCCNC(=N)N)C(=O)N1CCC[C@H]1C(=O)N[C@H](C)C(N)=O [Example 25d, N-Shikimyl-Gly-D2Nal-D4ClPhe-D3Pal-Ser-NMeTyr-DLys(Shik)-Leu-Harg-Pro-DAlaNH2] (Shikimoyl-G[d2Nal][dPhe(4-Cl)][d3Pal]S[NMeY][dK](Shikimoyl)L[hArg]P[dA]-NH2) | 0.0339
2 | CC(C)C[C@H](NC(=O)[C@@H](CCCCNC(=O)c1cccnc1)NC(=O)[C@H](Cc1ccc(O)cc1)N(C)C(=O)[C@H](CO)NC(=O)[C@@H](Cc1cccnc1)NC(=O)[C@@H](Cc1ccc(Cl)cc1)NC(=O)[C@@H](Cc1ccc2ccccc2c1)NC(=O)c1ccoc1)C(=O)N[C@@H](CCCCNC(C)C)C(=O)N1CCC[C@H]1C(=O)N[C@H](C)C(N)=O [Example 72b, N-3-Furoyl-D2Nal-D4ClPhe-D3Pal-Ser-NMeTyr-DLys(Nic)-Leu-Lys(Isp)-Pro-DAlaNH2] (X6-[d2Nal][dPhe(4-Cl)][d3Pal]S[NMeY][dK](Nicotinoyl)L[Lys(iPr)]P[dA]-NH2) | 0.0851
3 | CC(C)C[C@H](NC(=O)[C@@H](CCCCNC(=O)c1cccnc1)NC(=O)[C@H](Cc1ccc(O)cc1)N(C)C(=O)[C@H](CO)NC(=O)[C@@H](Cc1cccnc1)NC(=O)[C@@H](Cc1ccc(Cl)cc1)NC(=O)[C@@H](Cc1ccc2ccccc2c1)NC(=O)CNC(=O)C1=C[C@@H](O)[C@@H](O)[C@H](O)C1)C(=O)N[C@@H](CCCNC(=N)N)C(=O)N1CCC[C@H]1C(=O)N[C@H](C)C(N)=O [Example 15a, N-Shikimyl-Gly-D2Nal-D4ClPhe-D3Pal-Ser-NMeTyr-DLys(Nic)-Leu-Arg-Pro-DAlaNH2] (Shikimoyl-G[d2Nal][dPhe(4-Cl)][d3Pal]S[NMeY][dK](Nicotinoyl)LRP[dA]-NH2) | 0.0631
4 | CC(C)C[C@H](NC(=O)[C@@H](CCCCNC(=O)c1cccnc1)NC(=O)[C@H](Cc1ccc(O)cc1)N(C)C(=O)[C@H](CO)NC(=O)[C@@H](Cc1cccnc1)NC(=O)[C@@H](Cc1ccc(Cl)cc1)NC(=O)[C@@H](Cc1ccc2ccccc2c1)NC(=O)c1cccnc1)C(=O)N[C@@H](CCCCNC(C)C)C(=O)N1CCC[C@H]1C(=O)N[C@H](C)C(N)=O [Example 72d, N-Nicotinyl-D2Nal-D4ClPhe-D3Pal-Ser-NMeTyr-DLys(Nic)-Leu-Lys(Isp)-Pro-DAlaNH2] (Nicotinoyl-[d2Nal][dPhe(4-Cl)][d3Pal]S[NMeY][dK](Nicotinoyl)L[Lys(iPr)]P[dA]-NH2) | 0.00871
5 | CC(C)C[C@H](NC(=O)[C@@H](CCCNC(N)=O)NC(=O)[C@H](Cc1ccc(O)cc1)N(C)C(=O)[C@H](CO)NC(=O)[C@@H](Cc1cccnc1)NC(=O)[C@@H](Cc1ccc(Cl)cc1)NC(=O)[C@@H](Cc1ccc2ccccc2c1)NC(=O)c1ccccn1)C(=O)N[C@@H](CCCNC(=N)N)C(=O)N1CCC[C@H]1C(=O)N[C@H](C)C(N)=O [Example 78f, N-Picolinoyl-D2Nal-D4ClPhe-D3Pal-Ser-NMeTyr-DCit-Leu-Arg-Pro-DAlaNH2] (Picolinoyl-[d2Nal][dPhe(4-Cl)][d3Pal]S[NMeY][dCit]LRP[dA]-NH2) | 0.0316
6 | CC(C)C[C@H](NC(=O)[C@@H](CCCCNC(=O)c1cccnc1)NC(=O)[C@H](Cc1ccc(O)cc1)N(C)C(=O)[C@H](CO)NC(=O)[C@@H](Cc1cccc2ccccc12)NC(=O)[C@@H](Cc1ccc(Cl)cc1)NC(=O)CN(C)C(=O)CNC(=O)c1cccnc1)C(=O)N[C@@H](CCCCNC(C)C)C(=O)N1CCC[C@H]1C(=O)N[C@H](C)C(N)=O [Example 35a, Nic-Gly-Sar-D4ClPhe-D1Nal-Ser-NMeTyr-DLys(Nic)-Leu-Lys(Isp)-Pro-DAlaNH2] (Nicotinoyl-G[Sar][dPhe(4-Cl)][d1Nal]S[NMeY][dK](Nicotinoyl)L[Lys(iPr)]P[dA]-NH2) | 0.1
7 | CC(C)C[C@H](NC(=O)[C@@H](CCCCNC(=O)C1=C[C@@H](O)[C@@H](O)[C@H](O)C1)NC(=O)[C@H](Cc1ccc(O)cc1)N(C)C(=O)[C@H](CO)NC(=O)[C@@H](Cc1cccnc1)NC(=O)[C@@H](Cc1ccc(Cl)cc1)NC(=O)[C@@H](Cc1ccc2ccccc2c1)NC(=O)CNC(=O)c1cccnc1)C(=O)N[C@@H](CCCCNC(=N)N)C(=O)N1CCC[C@H]1C(=O)N[C@H](C)C(N)=O [Example 25a, N-Nicotinyl-Gly-D2Nal-D4ClPhe-D3Pal-Ser-NMeTyr-DLys(Shik)-Leu-Harg-Pro-DAlaNH2] (Nicotinoyl-G[d2Nal][dPhe(4-Cl)][d3Pal]S[NMeY][dK](Shikimoyl)L[hArg]P[dA]-NH2) | 0.0141
8 | CC(C)C[C@H](NC(=O)[C@@H](CCCCNC(=O)CNC(=O)C1=C[C@@H](O)[C@@H](O)[C@H](O)C1)NC(=O)[C@H](Cc1ccc(O)cc1)N(C)C(=O)[C@H](CO)NC(=O)[C@@H](Cc1cccnc1)NC(=O)[C@@H](Cc1ccc(Cl)cc1)NC(=O)[C@@H](Cc1ccc2ccccc2c1)NC(=O)CNC(=O)c1cccnc1)C(=O)N[C@@H](CCCNC(=N)N)C(=O)N1CCC[C@H]1C(=O)N[C@H](C)C(N)=O [Example 22, N-Nicotinyl-Gly-D2Nal-D4ClPhe-D3Pal-Ser-NMeTyr-DLys(Gly-Shik)-Leu-Arg-Pro-DAlaNH2] (Nicotinoyl-G[d2Nal][dPhe(4-Cl)][d3Pal]S[NMeY][dK]([Gly-Shikimoyl])LRP[dA]-NH2) | 0.00339
9 | CC(C)C[C@H](NC(=O)[C@@H](CCCCNC(=O)CNC(=O)[C@@H](O)[C@@H](O)[C@H](O)[C@@H](O)CO)NC(=O)[C@H](Cc1ccc(O)cc1)N(C)C(=O)[C@H](CO)NC(=O)[C@@H](Cc1cccnc1)NC(=O)[C@@H](Cc1ccc(Cl)cc1)NC(=O)[C@@H](Cc1ccc2ccccc2c1)NC(=O)CNC(=O)[C@@H](O)[C@@H](O)[C@H](O)[C@@H](O)CO)C(=O)N[C@@H](CCCNC(=N)N)C(=O)N1CCC[C@H]1C(=O)N[C@H](C)C(N)=O [Example 21, N-(L-Gulonyl)-Gly-D2Nal-D4ClPhe-D3Pal-Ser-NMeTyr-DLys(Gly-L-Gulonyl)-Leu-Arg-Pro-DAlaNH2] (X4-G[d2Nal][dPhe(4-Cl)][d3Pal]S[NMeY][dK]([Gly-X4])LRP[dA]-NH2) | 0.0316
10 | CC(C)C[C@H](NC(=O)[C@@H](CCCCNC(=O)CNC(=O)c1cccnc1)NC(=O)[C@H](Cc1ccc(O)cc1)N(C)C(=O)[C@H](CO)NC(=O)[C@@H](Cc1cccnc1)NC(=O)[C@@H](Cc1ccc(Cl)cc1)NC(=O)[C@@H](Cc1ccc2ccccc2c1)NC(=O)CNC(=O)C1=C[C@@H](O)[C@@H](O)[C@H](O)C1)C(=O)N[C@@H](CCCNC(=N)N)C(=O)N1CCC[C@H]1C(=O)N[C@H](C)C(N)=O [Example 15b, N-Shikimyl-Gly-D2Nal-D4ClPhe-D3Pal-Ser-NMeTyr-DLys(Gly-Nic)-Leu-Arg-Pro-DAlaNH2] (Shikimoyl-G[d2Nal][dPhe(4-Cl)][d3Pal]S[NMeY][dK]([Gly-Nicotinoyl])LRP[dA]-NH2) | 0.0209
11 | CC(C)C[C@H](NC(=O)[C@@H](CCCCNC(N)=O)NC(=O)[C@H](Cc1ccc(O)cc1)NC(=O)[C@H](CO)NC(=O)[C@@H](Cc1cccnc1)NC(=O)[C@@H](Cc1ccc(Cl)cc1)NC(=O)[C@@H](Cc1ccc2ccccc2c1)NC(=O)CNC(=O)[C@@H]1CCCO1)C(=O)N[C@@H](CCCCNC(C)C)C(=O)N1CCC[C@H]1C(=O)N[C@H](C)C(N)=O [Example 93, N (S)-2-Tetrahydrofuroyl-Gly-D2Nal-D4ClPhe-D3Pal-Ser-Tyr-DHcit-Leu-Lys(N-epsilon-Isopropyl)-Pro-DAlaNH2] (X1-G[d2Nal][dPhe(4-Cl)][d3Pal]SY[d(hCit)]L[Lys(iPr)]P[dA]-NH2) | 0.00589
